Legend:
[1] = tested on: common cutworm (Spodoptera litura); test: Insecticidal testing against common cutworm (cabbage leaf dip, second-stage larvae); type: in vivo; conditions: comparative test, procedure and conditions of Experimental Example 1
Description: (§1) Insecticidal Testing Against Common Cutworm (Spodoptera litura) Cabbage leaves were immersed in a liquid comprising the testing compound to a predetermined concentration for 30 seconds and air-dried. They were placed in a 7-cm polyethylene cup, and the second-stage larvae of common cutworm were left therein. The cup was placed in a constant-temperature room at 25° C., and the survival rate was investigated after 3 days. The test was carried out with two groups of 5 larvae per group. As a result, Compound No. (to be described later)

[2] = tested on: diamondback moth (Plutella xylostella); test: Insecticidal testing against diamondback moth (cabbage leaf dip, second-stage larvae); type: in vivo; conditions: comparative test, procedure and conditions of Experimental Example 2
Description: as §1, with “Diamondback Moth (Plutella xylostella)” for “Common Cutworm (Spodoptera litura)”, “diamondback moth” for “common cutworm”

Structure (SMILES) | insecticidal activity [1] | insecticidal activity [2]
Cc1cc(C(F)(C(F)(F)F)C(F)(F)F)ccc1NC(=O)c1cccc(NC(=O)c2ccccc2I)c1 [Compound A, N-(4-heptafluoroisopropyl-2-methyl)phenyl 3-(2-iodobenzoylamino)benzamide] | not observed | not observed
Cc1cc(C(F)(F)F)cc(C)c1NC(=O)c1cccc(NC(=O)c2ccccc2)c1 [Compound B, N-(2,6-dimethyl-4-trifluoromethyl)phenyl 3-(benzoylamino)benzamide] | not observed | not observed
